Assay results: ChEMBL document CHEMBL4507295 (2021)

Experiments:
[1] = test system: Mast/stem cell growth factor receptor Kit (Homo sapiens), P10721 [D816V]; conditions: Compound concentration 1000.0 nM
[2] = biological target: Beta-adrenergic receptor kinase 1 (Homo sapiens) (UniProt P25098); conditions: Compound concentration 1000.0 nM
[3] = biological target: Mitogen-activated protein kinase kinase kinase 3 (Homo sapiens) (UniProt Q99759); conditions: Compound concentration 1000.0 nM
[4] = biological target: Dual specificity mitogen-activated protein kinase kinase 3 (Homo sapiens) (UniProt P46734); conditions: Compound concentration 1000.0 nM
[5] = biological target: Tyrosine-protein kinase JAK1 (Homo sapiens) (UniProt P23458); conditions: Compound concentration 1000.0 nM
Tyrosine-protein kinase JAK1 (Homo sapiens), sequence (P23458 whole entry): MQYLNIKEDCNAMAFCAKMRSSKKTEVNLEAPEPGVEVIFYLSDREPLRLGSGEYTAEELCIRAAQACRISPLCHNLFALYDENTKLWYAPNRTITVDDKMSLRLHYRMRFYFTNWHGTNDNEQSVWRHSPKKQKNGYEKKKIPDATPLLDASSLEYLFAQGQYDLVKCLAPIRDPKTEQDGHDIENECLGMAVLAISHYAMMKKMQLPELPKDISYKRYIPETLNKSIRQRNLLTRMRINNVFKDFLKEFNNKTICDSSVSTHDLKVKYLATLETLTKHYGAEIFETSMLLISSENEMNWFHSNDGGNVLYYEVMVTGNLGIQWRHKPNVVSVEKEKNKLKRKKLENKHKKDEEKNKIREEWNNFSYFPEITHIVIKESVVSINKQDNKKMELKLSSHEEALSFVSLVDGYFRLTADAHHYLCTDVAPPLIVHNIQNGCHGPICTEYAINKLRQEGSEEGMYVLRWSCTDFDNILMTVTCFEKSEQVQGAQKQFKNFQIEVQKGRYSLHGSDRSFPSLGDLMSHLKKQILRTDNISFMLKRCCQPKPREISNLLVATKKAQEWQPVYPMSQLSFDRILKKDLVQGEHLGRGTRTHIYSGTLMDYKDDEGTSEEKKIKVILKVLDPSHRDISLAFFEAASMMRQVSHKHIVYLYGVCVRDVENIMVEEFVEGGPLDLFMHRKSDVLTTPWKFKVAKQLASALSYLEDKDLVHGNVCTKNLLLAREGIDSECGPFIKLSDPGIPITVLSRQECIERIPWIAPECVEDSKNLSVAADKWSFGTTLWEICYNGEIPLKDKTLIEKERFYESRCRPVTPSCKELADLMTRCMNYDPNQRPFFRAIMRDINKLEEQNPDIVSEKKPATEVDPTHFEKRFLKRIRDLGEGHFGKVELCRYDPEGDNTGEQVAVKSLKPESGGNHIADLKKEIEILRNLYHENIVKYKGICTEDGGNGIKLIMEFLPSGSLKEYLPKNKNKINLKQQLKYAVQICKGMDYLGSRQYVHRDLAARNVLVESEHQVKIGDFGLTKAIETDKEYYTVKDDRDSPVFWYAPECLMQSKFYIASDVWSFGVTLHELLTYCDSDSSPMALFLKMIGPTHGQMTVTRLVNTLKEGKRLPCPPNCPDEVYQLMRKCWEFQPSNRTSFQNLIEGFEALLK

[6] = biological target: Phosphatidylinositol 5-phosphate 4-kinase type-2 gamma (Homo sapiens) (UniProt Q8TBX8); conditions: Compound concentration 1000.0 nM
[7] = biological target: Leukocyte tyrosine kinase receptor (Homo sapiens) (UniProt P29376); conditions: Compound concentration 1000.0 nM
[8] = biological target: Tyrosine-protein kinase HCK (Homo sapiens) (UniProt P08631); conditions: Compound concentration 1000.0 nM
[9] = biological target: SRSF protein kinase 1 (Homo sapiens) (UniProt Q96SB4); conditions: Compound concentration 1000.0 nM
SRSF protein kinase 1 (Homo sapiens), sequence (Q96SB4 whole entry, the tested form may be a part): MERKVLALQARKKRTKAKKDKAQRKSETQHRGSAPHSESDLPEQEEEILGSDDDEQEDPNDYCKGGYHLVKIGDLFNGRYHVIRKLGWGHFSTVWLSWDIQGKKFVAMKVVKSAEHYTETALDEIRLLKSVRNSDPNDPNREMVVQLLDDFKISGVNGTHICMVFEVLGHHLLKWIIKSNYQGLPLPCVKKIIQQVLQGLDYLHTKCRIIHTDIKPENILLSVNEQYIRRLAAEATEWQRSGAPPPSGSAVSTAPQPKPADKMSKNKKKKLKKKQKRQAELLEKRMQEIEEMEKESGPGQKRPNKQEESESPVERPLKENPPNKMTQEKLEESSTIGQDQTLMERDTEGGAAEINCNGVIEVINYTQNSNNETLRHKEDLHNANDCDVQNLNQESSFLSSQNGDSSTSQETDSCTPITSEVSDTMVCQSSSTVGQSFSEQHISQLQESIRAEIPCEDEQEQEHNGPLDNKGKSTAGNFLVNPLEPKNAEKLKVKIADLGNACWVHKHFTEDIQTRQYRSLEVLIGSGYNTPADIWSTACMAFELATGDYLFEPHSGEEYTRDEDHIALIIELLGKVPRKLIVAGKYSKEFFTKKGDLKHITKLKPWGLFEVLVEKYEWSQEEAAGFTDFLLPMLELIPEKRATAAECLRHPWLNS

[10] = biological target: Epithelial discoidin domain-containing receptor 1 (Homo sapiens) (UniProt Q08345); conditions: Compound concentration 1000.0 nM
[11] = biological target: T1, Muscarinic acetylcholine receptor M1 (Homo sapiens) (UniProt P11229); conditions: Compound concentration 10.0 uM
T1 sequence (whole entry): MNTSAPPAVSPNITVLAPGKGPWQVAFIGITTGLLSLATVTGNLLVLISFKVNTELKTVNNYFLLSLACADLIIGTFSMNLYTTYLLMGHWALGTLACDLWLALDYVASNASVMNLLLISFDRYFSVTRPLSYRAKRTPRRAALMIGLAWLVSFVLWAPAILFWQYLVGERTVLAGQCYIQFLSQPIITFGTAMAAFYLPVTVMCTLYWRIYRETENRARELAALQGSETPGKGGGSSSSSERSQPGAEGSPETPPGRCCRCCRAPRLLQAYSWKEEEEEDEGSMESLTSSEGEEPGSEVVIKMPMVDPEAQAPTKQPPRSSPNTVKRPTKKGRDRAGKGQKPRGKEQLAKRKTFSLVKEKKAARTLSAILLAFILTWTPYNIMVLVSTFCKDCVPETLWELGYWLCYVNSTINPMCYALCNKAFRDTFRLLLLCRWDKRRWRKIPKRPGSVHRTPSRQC

[12] = biological target: Ribosomal protein S6 kinase alpha-3 (Homo sapiens) (UniProt P51812); conditions: Compound concentration 1000.0 nM
Ribosomal protein S6 kinase alpha-3 (Homo sapiens), sequence (P51812 whole entry): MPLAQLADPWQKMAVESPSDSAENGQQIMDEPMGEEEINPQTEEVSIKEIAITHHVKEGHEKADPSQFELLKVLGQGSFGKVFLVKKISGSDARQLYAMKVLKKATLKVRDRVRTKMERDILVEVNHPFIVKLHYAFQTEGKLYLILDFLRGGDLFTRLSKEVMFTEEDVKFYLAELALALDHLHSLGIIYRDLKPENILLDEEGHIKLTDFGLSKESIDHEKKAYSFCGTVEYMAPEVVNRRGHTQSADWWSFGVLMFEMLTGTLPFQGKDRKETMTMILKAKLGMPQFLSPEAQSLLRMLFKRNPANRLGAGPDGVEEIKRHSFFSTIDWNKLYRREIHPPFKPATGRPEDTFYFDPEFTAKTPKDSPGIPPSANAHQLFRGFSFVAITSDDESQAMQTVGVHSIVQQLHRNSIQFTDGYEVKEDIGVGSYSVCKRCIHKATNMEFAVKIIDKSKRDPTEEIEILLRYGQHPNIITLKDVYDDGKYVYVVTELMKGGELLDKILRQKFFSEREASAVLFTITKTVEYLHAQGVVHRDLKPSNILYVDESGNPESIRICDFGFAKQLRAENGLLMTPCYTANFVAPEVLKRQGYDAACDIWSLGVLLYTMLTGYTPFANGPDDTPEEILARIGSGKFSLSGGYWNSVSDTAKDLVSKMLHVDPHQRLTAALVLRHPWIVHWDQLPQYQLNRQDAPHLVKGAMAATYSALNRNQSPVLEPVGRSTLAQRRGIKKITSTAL

[13] = biological target: TGF-beta receptor type-2 (Homo sapiens) (UniProt P37173); conditions: Compound concentration 1000.0 nM
[14] = biological target: Ephrin type-A receptor 7 (Homo sapiens) (UniProt Q15375); conditions: Compound concentration 1000.0 nM
[15] = biological target: Mitogen-activated protein kinase kinase kinase kinase 5 (Homo sapiens) (UniProt Q9Y4K4); conditions: Compound concentration 1000.0 nM
Mitogen-activated protein kinase kinase kinase kinase 5 (Homo sapiens), sequence (Q9Y4K4 whole entry, looked up): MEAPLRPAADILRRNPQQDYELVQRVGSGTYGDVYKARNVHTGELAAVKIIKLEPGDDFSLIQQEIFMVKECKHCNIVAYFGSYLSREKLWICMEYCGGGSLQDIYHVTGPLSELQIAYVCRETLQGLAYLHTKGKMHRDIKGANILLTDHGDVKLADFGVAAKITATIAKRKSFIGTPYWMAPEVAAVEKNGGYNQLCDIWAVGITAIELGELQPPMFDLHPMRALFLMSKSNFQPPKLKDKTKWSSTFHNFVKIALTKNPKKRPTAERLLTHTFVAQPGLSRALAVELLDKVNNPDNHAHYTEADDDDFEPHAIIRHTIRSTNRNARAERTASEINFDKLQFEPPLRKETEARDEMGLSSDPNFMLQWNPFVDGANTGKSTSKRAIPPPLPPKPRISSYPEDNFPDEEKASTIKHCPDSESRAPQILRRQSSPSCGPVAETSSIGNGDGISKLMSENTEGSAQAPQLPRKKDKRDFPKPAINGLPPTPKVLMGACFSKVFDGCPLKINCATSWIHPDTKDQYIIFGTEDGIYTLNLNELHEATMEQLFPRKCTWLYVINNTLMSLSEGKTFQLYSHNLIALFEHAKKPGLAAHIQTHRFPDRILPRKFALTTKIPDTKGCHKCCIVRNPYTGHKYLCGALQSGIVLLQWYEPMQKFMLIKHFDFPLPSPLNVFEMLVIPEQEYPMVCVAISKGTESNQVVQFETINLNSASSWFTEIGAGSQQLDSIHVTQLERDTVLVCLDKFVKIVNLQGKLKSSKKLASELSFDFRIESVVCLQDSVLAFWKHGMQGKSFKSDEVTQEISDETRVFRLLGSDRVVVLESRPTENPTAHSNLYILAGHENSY

[16] = biological target: Macrophage-stimulating protein receptor (Homo sapiens) (UniProt Q04912); conditions: Compound concentration 1000.0 nM
[17] = biological target: Phosphatidylinositol 3-kinase C2 domain-containing subunit gamma (Homo sapiens) (UniProt O75747); conditions: Compound concentration 1000.0 nM
[18] = biological target: Dual specificity mitogen-activated protein kinase kinase 2 (Homo sapiens) (UniProt P36507); conditions: Compound concentration 1000.0 nM
[19] = biological target: Sigma non-opioid intracellular receptor 1 (Homo sapiens) (UniProt Q99720); conditions: Compound concentration 10.0 uM
Sigma non-opioid intracellular receptor 1 (Homo sapiens), sequence (Q99720 whole entry): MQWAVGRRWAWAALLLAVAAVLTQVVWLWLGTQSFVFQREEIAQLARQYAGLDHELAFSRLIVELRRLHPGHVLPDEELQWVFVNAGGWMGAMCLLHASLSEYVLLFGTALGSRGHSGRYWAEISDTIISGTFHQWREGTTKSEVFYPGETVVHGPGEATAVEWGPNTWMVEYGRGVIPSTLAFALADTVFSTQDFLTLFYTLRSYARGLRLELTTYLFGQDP

[20] = biological target: Serine/threonine-protein kinase MRCK beta (Homo sapiens) (UniProt Q9Y5S2); conditions: Compound concentration 1000.0 nM
[21] = biological target: Serine/threonine-protein kinase 24 (Homo sapiens) (UniProt Q9Y6E0); conditions: Compound concentration 1000.0 nM
[22] = biological target: Mitogen-activated protein kinase kinase kinase kinase 4 (Homo sapiens) (UniProt O95819); conditions: Compound concentration 1000.0 nM
[23] = biological target: Serine/threonine-protein kinase RIO2 (Homo sapiens) (UniProt Q9BVS4); conditions: Compound concentration 1000.0 nM
[24] = biological target: Serine/threonine-protein kinase NIM1 (Homo sapiens) (UniProt Q8IY84); conditions: Compound concentration 1000.0 nM
[25] = biological target: Glycogen synthase kinase-3 alpha (Homo sapiens) (UniProt P49840); conditions: Compound concentration 1000.0 nM
[26] = biological target: Dual specificity mitogen-activated protein kinase kinase 6 (Homo sapiens) (UniProt P52564); conditions: Compound concentration 1000.0 nM
Dual specificity mitogen-activated protein kinase kinase 6 (Homo sapiens), sequence (P52564 whole entry): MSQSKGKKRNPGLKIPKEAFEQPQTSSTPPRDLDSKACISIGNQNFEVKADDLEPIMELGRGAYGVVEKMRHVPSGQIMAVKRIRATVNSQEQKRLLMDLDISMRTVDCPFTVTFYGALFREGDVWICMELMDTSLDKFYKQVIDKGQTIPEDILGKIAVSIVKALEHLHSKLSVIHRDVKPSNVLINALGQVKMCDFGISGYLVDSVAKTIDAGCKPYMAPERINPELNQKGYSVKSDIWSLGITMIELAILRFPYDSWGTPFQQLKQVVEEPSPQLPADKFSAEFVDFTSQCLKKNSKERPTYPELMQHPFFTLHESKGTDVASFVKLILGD

[27] = biological target: Calcium/calmodulin-dependent protein kinase type II subunit gamma (Homo sapiens) (UniProt Q13555); conditions: Compound concentration 1000.0 nM
[28] = test system: Proto-oncogene tyrosine-protein kinase receptor Ret (Homo sapiens), P07949 [V804M]; conditions: Compound concentration 1000.0 nM
Proto-oncogene tyrosine-protein kinase receptor Ret (Homo sapiens), P07949 [V804M], sequence (P07949 whole entry V804M): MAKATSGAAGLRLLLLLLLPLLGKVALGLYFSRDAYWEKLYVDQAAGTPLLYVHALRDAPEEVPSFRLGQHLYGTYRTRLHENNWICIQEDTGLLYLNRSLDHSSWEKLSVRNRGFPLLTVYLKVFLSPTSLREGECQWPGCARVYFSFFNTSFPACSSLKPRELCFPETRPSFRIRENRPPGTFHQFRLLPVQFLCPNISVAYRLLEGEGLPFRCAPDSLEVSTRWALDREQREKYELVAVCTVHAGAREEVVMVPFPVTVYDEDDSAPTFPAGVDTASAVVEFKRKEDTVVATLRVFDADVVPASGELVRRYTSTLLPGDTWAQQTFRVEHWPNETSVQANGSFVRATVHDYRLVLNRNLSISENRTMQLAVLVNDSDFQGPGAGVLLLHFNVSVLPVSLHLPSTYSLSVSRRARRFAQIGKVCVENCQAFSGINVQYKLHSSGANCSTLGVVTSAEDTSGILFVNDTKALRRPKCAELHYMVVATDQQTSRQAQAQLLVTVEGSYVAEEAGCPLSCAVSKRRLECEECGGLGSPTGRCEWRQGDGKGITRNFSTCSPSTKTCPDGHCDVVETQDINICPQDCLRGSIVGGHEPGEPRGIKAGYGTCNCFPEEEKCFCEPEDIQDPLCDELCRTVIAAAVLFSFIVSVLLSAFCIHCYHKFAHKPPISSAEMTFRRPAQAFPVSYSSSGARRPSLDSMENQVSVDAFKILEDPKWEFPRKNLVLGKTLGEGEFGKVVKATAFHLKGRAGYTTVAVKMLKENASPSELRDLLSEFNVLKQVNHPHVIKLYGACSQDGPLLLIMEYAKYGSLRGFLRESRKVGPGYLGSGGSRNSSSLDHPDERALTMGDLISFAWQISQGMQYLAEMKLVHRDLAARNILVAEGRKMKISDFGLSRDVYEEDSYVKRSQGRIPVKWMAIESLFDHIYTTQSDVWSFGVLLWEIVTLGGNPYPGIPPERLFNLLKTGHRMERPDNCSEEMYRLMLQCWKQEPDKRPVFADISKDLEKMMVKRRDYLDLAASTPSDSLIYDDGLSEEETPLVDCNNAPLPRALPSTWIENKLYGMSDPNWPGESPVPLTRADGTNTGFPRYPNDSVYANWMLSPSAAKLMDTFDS

[29] = test system: Tyrosine-protein kinase ABL1 (Homo sapiens), P00519 [T315I]; conditions: Compound concentration 1000.0 nM
[30] = test system: Phosphatidylinositol 4,5-bisphosphate 3-kinase catalytic subunit alpha isoform (Homo sapiens), P42336 [E545A]; conditions: Compound concentration 1000.0 nM
[31] = biological target: Phosphatidylinositol 5-phosphate 4-kinase type-2 beta (Homo sapiens) (UniProt P78356); conditions: Compound concentration 1000.0 nM
[32] = biological target: Casein kinase I isoform gamma-1 (Homo sapiens) (UniProt Q9HCP0); conditions: Compound concentration 1000.0 nM
[33] = biological target: cAMP-dependent protein kinase catalytic subunit beta (Homo sapiens) (UniProt P22694); conditions: Compound concentration 1000.0 nM
[34] = biological target: Phosphatidylinositol 4-phosphate 5-kinase type-1 alpha (Homo sapiens) (UniProt Q99755); conditions: Compound concentration 1000.0 nM
[35] = biological target: Serine/threonine-protein kinase PAK 5 (Homo sapiens) (UniProt Q9P286); conditions: Compound concentration 1000.0 nM
[36] = biological target: Ribosomal protein S6 kinase alpha-6 (Homo sapiens) (UniProt Q9UK32); conditions: Compound concentration 1000.0 nM
[37] = biological target: Vascular endothelial growth factor receptor 1 (Homo sapiens) (UniProt P17948); conditions: Compound concentration 1000.0 nM
[38] = biological target: RAC-beta serine/threonine-protein kinase (Homo sapiens) (UniProt P31751); conditions: Compound concentration 1000.0 nM

N#CC1(c2ccccn2)CCN(Cc2cc(C(=O)N3CCCC3)c(=O)n3ccccc23)CC1
inactive: residual activity [1] 100% | residual activity [2] 82% | residual activity [3] 92% | residual activity [4] 81% | residual activity [5] 100% | residual activity [6] 58% | residual activity [7] 90% | residual activity [8] 100% | residual activity [9] 85% | residual activity [10] 85% | inhibition [11] -2.01% | residual activity [12] 60% | residual activity [13] 93% | residual activity [14] 100% | residual activity [15] 75% | residual activity [16] 100% | residual activity [17] 73% | residual activity [18] 91% | inhibition [19] 16.3% | residual activity [20] 63% | residual activity [21] 87% | residual activity [22] 87% | residual activity [23] 95% | residual activity [24] 95% | residual activity [25] 72% | residual activity [26] 98% | residual activity [27] 100% | residual activity [28] 95% | residual activity [29] 100% | residual activity [30] 78% | residual activity [31] 62% | residual activity [32] 79% | residual activity [33] 54% | residual activity [34] 100% | residual activity [35] 93% | residual activity [36] 91% | residual activity [37] 100% | residual activity [38] 84%

N#CC1(c2ccccn2)CCN(Cc2cc(C(=O)O)c(=O)n3ccccc23)CC1 [MSD-M1PAM]
inactive: residual activity [1] 100% | residual activity [2] 93% | residual activity [3] 77% | residual activity [4] 73% | residual activity [5] 84% | residual activity [6] 99% | residual activity [7] 100% | residual activity [8] 100% | residual activity [9] 100% | residual activity [10] 100% | inhibition [11] -1% | residual activity [12] 81% | residual activity [13] 93% | residual activity [14] 100% | residual activity [15] 87% | residual activity [16] 100% | residual activity [17] 97% | residual activity [18] 100% | inhibition [19] 29.1% | residual activity [20] 96% | residual activity [21] 100% | residual activity [22] 87% | residual activity [23] 92% | residual activity [24] 69% | residual activity [25] 100% | residual activity [26] 99% | residual activity [27] 100% | residual activity [28] 92% | residual activity [29] 91% | residual activity [30] 100% | residual activity [31] 100% | residual activity [32] 100% | residual activity [33] 92% | residual activity [34] 100% | residual activity [35] 96% | residual activity [36] 97% | residual activity [37] 92% | residual activity [38] 73%
